Measured values as given in patent US4119730A, “Treating muscle spasms” (Chimicasa GmbH, priority 1976, dated 1978).
Converted amounts (≈) assume the structure as drawn. Where two headings read alike, the source gives them in different places. Blank lines part the entries; values can stand above or below the compound they belong to.

Key:
[1] = tested on: bladder; test: cystometric measuring of the damping of the increase of the bladder tonus caused by a spasmogenic agent (carbachol); type: in vivo, human
Experimental: The effectiveness test is performed by cystometric measuring of the damping of the increase of the bladder tonus caused by the antispasmodic agent after intravesical administration of a spasmogenic agent as follows:
The bladder capacity (BC) of several human subjects with indwelling permanent catheters is measured by filling the bladders with water warmed to 37° C. The maximum micturition pressure (MM) in the case of the filled bladder is measured. The bladder is then emptied and filled again with warm, clean water to half the capacity measured previously (1/2 BC) and the pressure P1 in the case of the half-filled bladder is measured. The bladder is again emptied and filled again to half its capacity with a solution 1. […] The pressure P2 for half its capacity is measured. […] 30 minutes thereafter the emptied bladder is filled with water, warmed to 37° C. to half its capacity and the pressure P3 is measured. The bladder is subsequently emptied and filled to half its capacity with the solution 1 and the pressure P4 is measured. Fifteen minutes later, the bladder is emptied again and filled to half its capacity with water, warmed to 37° C. and the pressure P5 is measured. Directly thereafter, the bladder is emptied and filled to half its capacity with solution 1 and the pressure P6 is measured. […]

[2] = tested on: isolated guinea pig intestine; test: inhibition of histamine-induced contraction of isolated guinea pig intestine; conditions: Cavia porcellus, 2 min, read-out: ED50 (concentration of agent per liter of bath liquid which inhibits the contraction of the intestine by 50%)
Experimental: The antispasmodic effect of the compounds (I) could not be expected from a study of their structure alone. Their effectiveness has been measured in a pharmacological standard test as follows:
Several 3 cm-long pieces of an isolated guinea pig intestine were stretched under a load of 0.5 g in separate baths. In all baths, the bath liquid was Tyrode's solution, warmed to 32° C. A first contraction of the pieces of intestine was produced in each case by adding 0.5 mg (milligram) of histamine chloride per liter of bath liquid. he reduction in length caused by the first contraction was measured 2 min (minutes) after adding the histamine chloride.
The bath liquids were then renewed and, after relaxation of the first contraction, the agent under test, dissolved in propylene glycol, was added to the bath liquids and 2 min later 0.5 mg. of histamine chloride per liter of bath liquid was again added. A second contraction was thereby produced and the reduction in length caused by this was measured 2 min after the addition of the histamine chloride. […] The concentrations (ED50) of agent per liter of bath liquid, which inhibit the contraction of the intestine by 50% were determined (ED50 = effective dose to inhibit for 50%).

[3] = cited from earlier work
[4] = 0.5 mg histamine chloride per liter, Tyrode's solution, 32° C.

SMILES: CC=Cc1ccc(OC(C)=O)c(OC)c1 [2-Methoxy-4-propenylphenyl acetate]
- IC50 [2]: 52 µg/mL

SMILES: CC=Cc1ccc(OC)c(OC)c1 [3,4-Dimethoxy-propenylbenzol]
- IC50 [2, 4]: 27 µg/mL (≈ 151 µM)

SMILES: C=CCc1ccc(OC(=O)c2ccccc2)c(OC)c1 [4-Allyl-2-methoxyphenyl benzoate]
- IC50 [2, 4]: 160 µg/mL (≈ 596 µM)

SMILES: COc1ccc(Cc2nccc3cc(OC)c(OC)cc23)cc1OC [Papaverine]
- non-specific actions ([3]; in vivo): observed
- activity in animal experiments ([3]; prior art): very active in animal experiments
- activity when used on humans ([3]; prior art): its activity is insufficient
- dosage required in severe spasms relative to lethal dose ([3]; prior art, lethal dose from animal experiments): very high dosages, near the lethal dose

SMILES: CN1[C@@H]2CC[C@H]1C[C@@H](OC(=O)C(CO)c1ccccc1)C2 (stereo partly drawn) [atropine]
- drug dependence ([3]; especially with long term treatment, prior art): drug dependence can occur
- side effects associated with use ([3]; known antispasmodic, prior art): inducement of sleepiness, mental confusion and a state of inattentiveness

Further lines, with some results ahead:

- IC50 [2]: 11.8 µg/mL (≈ 66.2 µM)
SMILES: C=CCc1ccc(OC)c(OC)c1 [1-Allyl-3,4-dimethoxybenzene]
- effectiveness on humans ([1]; rectal): effectiveness

- IC50 [2, 4]: 25 µg/mL
SMILES: C=CCc1ccc(OC(C)=O)c(OC)c1 [4-Allyl-2-methoxyphenyl acetate]
- effectiveness on humans ([1]; rectal or oral): effectiveness

- IC50 [2, 4]: 14.5 µg/mL (≈ 61.9 µM)
SMILES: C=CCc1ccc(OC(=O)CCC)c(OC)c1 [4-Allyl-2-methoxyphenyl butanoate]

- IC50 [2, 4]: 44.6 µg/mL (≈ 180 µM)
SMILES: C=CCc1ccc(OC(=O)CCCC)c(OC)c1 [4-Allyl-2-methoxyphenyl valerate]
